Data taken from patent publication US20020026052A1, “3-cyanoquinolines, 3-cyano-1,6-naphthyridines, and 3-cyano-1,7-naphthyridines as protein kinase inhibitors” (American Home Products Corporation, priority 2000, published 2002).
pIC50: −log10 of the molar value. Values joined by “and” are separate entries in the source; they are usually repeats but may differ in a detail not shown here. Equal values may be shown once.

Key:
[1] = target: Src (Homo sapiens, UniProt P12931); test: c-Src Kinase Assay (ELISA); format: biochemical
Description: Inhibitors of Src (partially purified preparation purchased from Upstate Biotechnologies) tyrosine kinase activity are analyzed in an ELISA format. […] Horseradish Peroxidase (HRP)-conjugated anti-phosphotyrosine is used to detect phosphorylated peptide via a color reaction. Conditions recommended by the manufacturer are employed.
Reaction conditions: Five microliter aliquots of each compound prepared fresh at the time of the assay are added as a solution in lOmM HEPES pH 7.5, 10% DMSO to the reaction well. Thirty-five microliters of reaction mix containing Src, buffer and peptide/bovine serum albumin mix are added to the compound wells and incubated at 30° C. for 10 minutes (reaction buffer: 5 OmM TrisHCI pH 7.5, l0 mM MgCl2, O.lmM EGTA, 0.5 mM Na3 VO4)-1H-. The reaction is started by addition of 10 microliters of ATP, incubated at 30° C. for 1 hour, and stopped by addition of 20 microliters of 0.5 M EDTA. The reaction mixture with the phosphorylated peptide is then transferred to a streptavidin-coated microtiter plate (provided in the kit) and allowed to bind for 20 minutes. IUnbound peptide and reaction mixture is decanted and the plate is washed with PBS six times. HRP-conjugated phosphotyrosine antibody supplied in the kit is incubated with the plate for one hour, then decanted. The plate is again washed with PBS six times.
Activity is determined as % inhibition as calculated by the formula: (1−Abs/Abs(max) ) ×100=% inhibition.

[2] = target: Rat2 fibroblasts stably transformed with v-Src/Hu c-Src fusion gene (Homo sapiens, UniProt P12931, cells depend on it, form not given); test: Anchorage Independent Src-transformed Fibroblast Proliferation Assay; format: cell-based, Rat; conditions: suspension growth, MTS reagent on Day 5; read-out: anch-indep src-tx fib IC50
Description: Anchorage Independent Src-transformed Fibroblast Proliferation Assay
Rat2 fibroblasts stably transformed with a plasmid containing a CMV promotor controlled v-Src/Hu c-Src fusion gene in which the catalytic domain of human c-Src was inserted in place of the v-Src catalytic domain in the v-Src gene are used for the measurement of src dependent suspension growth. […] Multiple entries for a given compound indicate that it was tested multiple times.

[3] = target: T1, Raf1 (c-Raf) (Homo sapiens, UniProt P04049); test: Raf1 Kinase Cascade Assay; format: biochemical
T1 construct: Sf9 insect cell lysate containing full length 6 his-tagged recombinant human c—Raf; 6His; host or cells: Sf9 insect cells (c-Raf, used as lysate); E. coli (GST-MEK1, GST-MAPK)
Description: Raf1 Kinase Cascade Assay Procedure
(Specific Activity: ˜200 U/ml). Human Non-active Mek-1—GST and human GST-MAP kinase (recombinant proteins produced in E. coli).
Stock Solutions Raf Assay:
Assay Dilution Buffer (ADB): 2 OmM MOPS, pH 7.2, 25 mM B-glycerol phosphate, mM EGTA, 1 mM sodium orthovanadate, 1 mM dithiothreitol. Magnesium/ATP Cocktail: 500 AM cold ATP and 75 mM magnesium chloride in ADB.
Active Kinase: Human Active c—Raf: Use at 0.4 U per assay point. Non-active GST-MEK1: Use at 0.1, ug per assay point. Non-active GST-p42 MAP Kinase: Use at 1.0 tg per assay point.
TBST—Tris (50 mM, pH 7.5)-1H-, NaCl (150 mM), Tween-20 (0.05%) Superblock (Pierce) Anti—GST Ab (Pharmacia) Anti-Phospho MAPK (Sigma) Anti-Mouse Ab/Europium conjugate (Wallac)
Assay Procedure: First Stage: c—Raf Dependent Activation of GST-MEK and GST-MAPK Add […] of ADB per assay (i.e. per well of a 96 well plate) Add 10 ml of 0.5 mM cold ATP and 75 mM magnesium chloride in ADB. Add 2 ml of c—Raf (0.4 U/assay), in conjunction with 1.6 ml non-active MEKI (0.4 mg/assay). Add 4 ml of non-active GST-p42 MAP Kinase (1.0 mg/assay). Incubate for 60 minutes at 30° C. in a shaking incubator. Transfer this mixture to an anti—GST Ab coated 96 well plate (Nunc Immunosorb plates coated o/n with a—GST, then blocked with Pierce Superblock). Incubate for 60 minutes at 30° C. in a shaking incubator Wash 3×with TBST, add Anti-Phospho MAPK (Sigma) (1:3000)-1H-Incubate for 60 minutes at 30° C. in a shaking incubator Wash 3×with TBST, add Anti-Mouse Ab/Europium conjugate (Wallac) (1:500)-1H-Incubate for 60 minutes at 30° C. in a shaking incubator Wash 3×with TBST, Read plates in Wallac Victor model Plate Reader. Collect data analyze in Excel for single point and IC50 determinations.
IC50 determinations - done on compounds from single point assays with >80% inhibition. Typically Raf-1 assay is run at compound concentrations from 10 μM to 30 nM in half log dilutions. (% inhibition is determined for each compound concentration).

T1 sequence (P04049 whole entry): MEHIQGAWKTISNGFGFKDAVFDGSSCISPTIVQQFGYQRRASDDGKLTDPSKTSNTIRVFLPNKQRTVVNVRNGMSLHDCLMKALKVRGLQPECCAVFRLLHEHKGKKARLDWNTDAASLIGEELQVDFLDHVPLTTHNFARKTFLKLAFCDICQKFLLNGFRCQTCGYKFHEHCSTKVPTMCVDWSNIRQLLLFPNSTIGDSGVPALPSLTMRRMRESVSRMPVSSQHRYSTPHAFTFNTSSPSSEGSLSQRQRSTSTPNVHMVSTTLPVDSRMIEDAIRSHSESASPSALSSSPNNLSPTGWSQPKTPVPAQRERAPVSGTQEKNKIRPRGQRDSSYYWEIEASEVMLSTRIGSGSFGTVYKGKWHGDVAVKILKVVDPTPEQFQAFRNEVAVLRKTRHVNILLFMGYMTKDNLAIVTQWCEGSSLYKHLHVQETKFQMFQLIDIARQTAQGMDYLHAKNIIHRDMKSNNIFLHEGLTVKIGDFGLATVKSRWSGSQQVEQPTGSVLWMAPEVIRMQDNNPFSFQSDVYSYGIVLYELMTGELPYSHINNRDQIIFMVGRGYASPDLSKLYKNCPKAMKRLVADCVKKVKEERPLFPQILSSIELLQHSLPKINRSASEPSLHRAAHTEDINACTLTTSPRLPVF

| pIC50 [1] | GI50 [2] | melting point | Compound | pIC50 [3] | ELISA c-src % inhibition ([1]; at 10 nM) |
| --- | --- | --- | --- | --- | --- |
| 7.44 | 7300 nM | – | 4-(2,4-Dichloro-5-methoxyanilino)-7-(3-formyl)-3-quinolinecarbonitrile [Example 112] | – | – |
| 8.49 | 640 nM | – | 4-[(2,4-Dichloro-5-methoxyphenyl) amino]-7-[4-(4-morpholinyl) phenyl]-3-quinolinecarbonitrile [Example 128] | – | – |
| 7.96 | – | – | COc1cc(Nc2c(C#N)cnc3cc(/C=C/c4ccccn4)ccc23)c(Cl)cc1Cl [Example 3, 4-(2,4-Dichloro-S-methoxyanilino)-7-[(E)-2-(2-pyrdinyl)ethenyl]-3-quinoline-carbonitrile] | – | – |
| 7.96 | – | > 300 °C (dec.) | COc1cc(Nc2c(C#N)cnc3cc(-c4ccc(C=O)s4)ccc23)c(Cl)cc1Cl [Example 52, 4-(2,4-dichloro-5-methoxyanilino)-7-(5-formyl-2-thienyl)-3-quinolinecarbonitrile] | – | – |
| 7.92 and 7.82 | – | 229 to 230 °C | COc1cc(Nc2c(C#N)cnc3cc(-n4cccc4)c(OC)cc23)c(Cl)cc1Cl [Example 59, 4-(2,4-Dichloro-5-methoxyanilino)-6-methoxy-7-(1H-pyrrol-1-yl)-3-quinolinecarbonitrile] | – | – |
| 7.40 | 1400 nM | 130 to 135 °C | COc1cc(Nc2c(C#N)cnc3cc(-c4ccc(CNCCc5ccccn5)o4)ccc23)c(Cl)cc1Cl [Example 74, 4-(2,4-Dichloro-5-methoxyanilino)-7-[5-({[2-(2-pyridinyl)ethyl]amino}methyl)-2-furyl]-3-quinolinecarbonitrile] | – | – |
| 9.28 and 9.08 | 90 nM | – | COc1cc(Nc2c(C#N)cnc3cc(-c4ccc(CN5CCC(O)CC5)s4)ccc23)c(Cl)cc1Cl [Example 89, 4-(2,4-dichloro-5-methoxyanilino)-7-{5-[(4-hydroxy-1-piperidinyl)methyl]-2-thienyl}-3-quinolinecarbonitrile] | – | – |
| 6.21 and 6.17 | > 10000 nM | 157 to 158 °C | COc1cc(Nc2c(C#N)cnc3cc(-n4cccc4CN(C)C)ccc23)c(Cl)cc1Cl [Example 93] | – | – |
| 8.00 | > 10000 nM and 5900 nM | – | COc1cc(Nc2c(C#N)cnc3cc(-c4ccc(-c5nnn[nH]5)cc4)ccc23)c(Cl)cc1Cl [Example 105] | – | – |
| 6.77 | > 10000 nM | 269 to 270 °C | COc1cc(Nc2c(C#N)cnc3cc(-c4cc5ccccc5s4)ccc23)c(Cl)cc1Cl [Example 120, 7-(1-benzothien-2-yl)-4-(2,4-dichloro-5-methoxyanilino)-3-quinolinecarbonitrile] | – | – |
| 7.66 | 6500 nM | 190 to 191 °C | COc1cc(Nc2c(C#N)cnc3cc(C#CCN4CCOCC4)ccc23)c(Cl)cc1Cl [Example 146, 4-(2 ,4-Dichloro-5-methoxyanilino)-7-[3-(4-morpholinyl)-1-propynyl]-3-quinolinecarbonitrile] | – | – |
| – | – | 214 to 215 °C | Cn1ccnc1Sc1ccc(Nc2c(C#N)cnc3cc(-c4ccc(CN5CCCCC5)o4)ccc23)cc1Cl [Example 155, 4-{3-Chloro-4-[(1-methyl-1H-imidazol-2-yl)sulfanyl]anilino}-7-[5-(1-piperidinylmethyl)-2-furyl]-3-quinolinecarbonitrile] | 7.70 | – |
| – | 450 nM | 256 to 258 °C | COc1cc(Nc2c(C#N)cnc3cc(-c4ccc(CNCCc5ccccn5)cc4)ccc23)c(Cl)cc1Cl [Example 229, 4-(2,4-Dichloro-5-methoxyanilino)-7-[4-({[2-(2-pyridinyl)ethyl]amino}-methyl)phenyl]-3-quinolinecarbonitrile] | – | – |
| – | 390 nM | 278 to 280 °C | COC(=O)C1CCN(Cc2ccc(-c3ccc4c(Nc5cc(OC)c(Cl)cc5Cl)c(C#N)cnc4c3)cc2)CC1 [Example 231, Methyl 1-{4-[3-cyano-4-(2,4-dichloro-5-methoxyanilino)-7-quinolinyl]benzyl}-4-piperidinecarboxylate] | – | – |
| – | 3500 nM | 248 to 252 °C | COc1cc(Nc2c(C#N)cnc3cc(-c4cnc(CN5CCOCC5)n4C)c(OC)cc23)c(Cl)cc1Cl [Example 232, 4-(2,4-Dichloro-5-methoxyanilino)-6-methoxy-7-[1-methyl-2-(4-morpholinylmethyl)-1H-imidazol-5-yl]-3-quinolinecarbonitrile] | – | – |
| – | 720 nM | 140 to 143 °C | COc1cc(Nc2c(C#N)cnc3cc(-c4ccc(CN5CCOCC5)cc4)ccc23)c(Cl)cc1C [Example 234, 4-(2-Chloro-5-methoxy4-methylanilino)-7-[4-(4-morpholinylmethyl)phenyl]3-quinolinecarbonitrile] | – | – |
| – | 790 nM | 174 to 178 °C | COc1cc(Nc2c(C#N)cnc3cc(-c4ccc(CN5CCOCC5)cc4)ccc23)c(Cl)cc1F [Example 235, 4-(2-Chloro-4-fluoro-5-methoxyanilino)-7-[4-(4-morpholinylmethyl)phenyl]-3-quinolinecarbonitrile] | – | – |
| – | 570 nM | 160 to 163 °C | COc1ccc(Cl)c(Nc2c(C#N)cnc3cc(-c4ccc(CN5CCOCC5)cc4)ccc23)c1 [Example 236, 4-(2-Chloro-5-methoxyanilino)-7-[4-(4-morpholinylmethyl)phenyl]-3-quinolinecarbonitrile] | – | – |
| – | 490 nM and 520 nM and 410 nM | 248 °C | COc1cc(Nc2c(C#N)cnc3cc(-c4ccc(CN5CCC(C(=O)O)CC5)cc4)ccc23)c(Cl)cc1Cl [Example 237, 1-{4-[3-Cyano-4-(2,4-dichloro-5-methoxyanilino)-7-quinolinyl]benzyl}-4-piperidinecarboxylic acid] | – | – |
| – | – | – | N#Cc1cnc2cc(-c3csc(CN4CCCCC4)c3)ccc2c1Nc1ccc(Sc2ccccc2)c(Cl)c1 [Example 462, 4-{[3-chloro-4-(phenylsulfanyl)phenyl]amino}-7-[5-(1-piperidinylmethyl)-3-thienyl]-3-quinolinecarbonitrile] | 7.30 | – |
| 9.24 | 340 nM and 400 nM | – | (1-{4-[3-Cyano-4-(2,4-dichloro-5-methoxyanilino)-7-quinolinyl]benzyl }-4-piperidinyl) acetic acid [Example 100] | – | – |
| 7.36 | > 10000 nM | – | (E)-3-[3-Cyano-4-(2,4-dichloro-5-methoxyanilino)-7-quinolinyl]-2-propenoic acid [Example 99] | – | – |

| Compound | pIC50 [1] | GI50 [2] | melting point | pIC50 [3] | ELISA c-src % inhibition ([1]; at 10 nM) |
| --- | --- | --- | --- | --- | --- |
| COc1cc(Nc2c(C#N)cnc3cc(-c4ccc(-c5ccccc5)cc4)ccc23)c(Cl)cc1Cl [Example 165, 7-[1,1-Biphenyl]-4-yl-4-(2,4-dichloro-5-methoxyanilino)-3-quinolinecarbonitile] | – | > 10000 nM | – | – | 28% at 10 nM |
